ED50 data for four compounds are collected here from patent US3984562A, “Substituted benzodiazepines and method of use” (American Cyanamid Company, priority 1975, dated 1976).

Like-named read-outs stand apart in the source and are kept apart here.

The test in a line: protection from convulsions resulting from the administration of pentylenetetrazole (anti-anxiety test, rats, oral). The test is classed as in vivo. The note with it: Rattus norvegicus, read-out: Median Effective Oral Dose ED50. The procedure: The anti-anxiety properties of these compounds have been established in a test which indicates anxiolytic activity by a measure of protection from convulsions resulting from the administration of pentylenetetrazole. Graded dose levels of the compounds are administered orally, in a 2% starch vehicle, to groups of at least 5 rats. At the estimated time of peak effect, the rats are treated intravenously with pentylenetetrazole at a dose of 21 to 23 mg./kg. of body weight. This dose is estimated to cause clonic seizures in 99% of unprotected rats. The effective dose of the test compound for protection of 50% of the animals (ED50) is calculated by the method of D. H. Finney in Statistical Methods in Biological Assay, Second Edition, Hafner Publishing Co., New York, 1964, pp. 456-457. The results of this test on representative compounds of the present invention are given in the following table in comparison with meprobromate which is tested in the same manner. It has been reported [R. T. Hill and D. H. Tedeschi, "Animal Testing and Screening Procedures in Evaluating Psychotropic Drugs" in An Introduction to Psychopharmacology, Eds. R. R. Rech and K. E. Moore, Raven Press, New York, pp. 237-288 (1971)] that there is a high degree of correlation between antagonism of pentylenetetrazole seizures in rats and anti-anxiety effects in higher warm-blooded animals.

The mark [1] stands for this setting: oral, 2% starch vehicle, rats (at least 5 per group), pentylenetetrazole 21 to 23 mg./kg. intravenously at estimated time of peak effect, protection of 50% of animals.

The term ED50 denotes the dose at which the effect has come halfway, by size or by number of responders. In the case of `CCCC(C)(COC(N)=O)COC(N)=O` [meprobromate, reference compound], the ED50 (po) amounted to 22 mg/kg.
Consider `O=C(CCN1CCCCC1)N1CC2CCCN2Cc2ccccc21` (single isomer, unassigned; (-)) [(-)-2,3,5,10,11,11a-Hexahydro-10-(3-piperidinopropionyl)-1H-pyrrolo[2,1-c][1,4]benzodiazepine], for which the ED50 under setting [1] was 16 mg/kg.
Turning to `O=C(CCN1CCCC1)N1CC2CCCN2Cc2ccccc21` (single isomer, unassigned; (-)) [(-)-2,3,5,10,11,11a-Hexahydro-10-[3-(1-pyrrolidinyl)-propionyl]-1H-pyrrolo[2,1-c] [1,4]benzodiazepine], the ED50 under setting [1] is 57 mg/kg.
The same measure, in the same setting: next, `O=C(CCN1CCCC1)N1CC2CCCN2Cc2cc(Cl)ccc21` (single isomer, unassigned; (-)) [(-)-7-Chloro-2,3,5,10,11,11a-hexahydro-10-[3-(1-pyrrolidinyl)-propionyl]-1H-pyrrolo[2,1-c][1,4]benzodiazepine]: 7 mg/kg.
